{"source": "patent US20260108547A1", "about": "“LEVERAGING L-FUCOSE-MEDIATED SIGNALING TO INDUCE MONOCYTE-DERIVED DENDRITIC CELL POLARIZATION” (H. LEE MOFFITT CANCER CENTER AND RESEARCH INSTITUTE, INC., priority 2022, published 2026)", "key": {"[1]": {"system": "SW1 tumors", "assay": "Volumetric tumor growth, SW1 melanoma in C3H/HeN mice (incl. immunodepletion, FTY720, anti-PD1)", "type": "in vivo, mouse", "conditions": "SW1 model", "excerpt": "All animals were housed at the Vincent A. Stabile Research building animal facility at H. Lee Moffitt Cancer Center & Research Institute, which is fully accredited by the Association for Assessment and Accreditation of Laboratory Animal Care International (AAALAC, #434), and are managed in accordance with the Guide for the Care and Use of Laboratory Animals (“The Guide”), the Animal Welfare Regulations Title 9 Code of Federal Regulations Subchapter A, “Animal Welfare”, Parts 1-3 (AWR), the Public Health Service Policy on Humane Care and Use of Laboratory Animals (PHS Policy), and by the USF Institutional Animal Care and Use Committee's Principles and Procedures of Animal Care and Use (IACUC Principles). The experiments and protocols detailed in this study received institutional approval by the Moffitt IACUC (RIS00001625). Four-to-six-week-old female C3H/HeN and male C57BL6 mice were purchased from Charles Rivers Laboratories for the indicated experiments. Four-to-six-week-old male NSG mice from the Lau laboratory breeding colony were used for the indicated experiments. Power calculations were used to determine mouse cohort sizes to detect significant changes in tumor sizes. In general, 10 mice per indicated cohort to accommodate for incidental loss of mice due to issues beyond our control (e.g., incidental tumor ulceration that required exclusion from the study). Mouse tumor volumes were measured using length, width and depth divided by 2. At each experimental endpoint, mice were humanely euthanized using CO2 inhalation in accordance to the American Veterinary Medical Association guidelines.\nFor all mouse models, 1×10^6 melanoma cells were injected subcutaneously in the right hind flanks of each mouse. […] This dosage is within ranges for dietary supplementation with L-fucose and other similar dietary sugars (e.g., D-mannose) in other rodent studies. When the tumors reached −2 cm^3, the animals were sacrificed, and the tumors either processed for flow cytometric profiling or for histological analysis as indicated.\n(§1) Control vs. mFuk±L-fucose models (FIG. 1 & FIG. 8): SW1 or SM1 mouse melanoma cells were injected into syngeneic C3H/HeN (or NSG) female or C57BL/6 male mice, respectively, as follows: parental SW1 cells for FIG. 1A; parental SM1 cells for FIG. 1E; SW1 cells stably expressing either empty vector (EV) or mouse fucose kinase (mFuk) for FIG. 1L; and parental SW1 cells for FIG. 1M.\nas §1, with “L-fucose±FTY720” for “mFuk±L-fucose”, “2):” for “1 & FIG. 8):”, “respectively. Cells were injected” for “respectively,”, “1M. FTY720 was administered at 20 μg every 2 days starting on Day 12, just prior to the initiation of LF, until endpoint.” for “1M.”\nImmunodepletion mouse models (FIG. 1 & FIG. 8): Three days prior to tumor engraftment, PBS (control) or ˜300 μg α-CD4 (20 mg/kg, for immunodepletion, GK1.5, Bioxcell (West Lebanon, NH)) or 0-CD8 (20 mg/kg, for immunodepletion, 2.43, Bioxcell (West Lebanon, NH)) was administered by intraperitoneal injection into the indicated cohorts of mice. Injections of immunodepletion antibody or PBS were continued every 3-4 days until endpoint. Syngeneic recipient C3H/HeN female or C57BL/6 male mice were injected with SW1 or SM1 cells, respectively. […]"}, "[2]": {"system": "bone marrow-derived MCs (BMMCs)", "assay": "BMMC / T cell ex vivo co-culture (CTV proliferation, interferon-gamma release)", "type": "cell-based", "excerpt": "We next sought to see how the immunostimulatory capacity of these cells was altered after L-fucose treatment by culturing L-fucose modulated, either by decreased fucosylation via 2FF or increased fucosylation by L-fuc, MCs with immature T cells to asses (FIG. 22B) proliferation by loss of CTV staining and (FIG. 22C) T cell activation as evident by interferon-gamma release."}}, "data": [{"smiles": "C[C@H](O)[C@@H](O)[C@@H](O)[C@H](O)C=O", "note": "[L-fucose]", "values": [{"measurement": "reduction of tumor growth", "setting": "[1]; CD4+T cell depletion", "result": "completely abrogated"}, {"measurement": "efficacy of anti-PD1 when combined with oral L-fuc", "setting": "[1]; L-fuc in combination with anti-PD1", "result": "did not enhance efficacy of anti-PD1"}, {"measurement": "reduced tumor growth", "setting": "[1]; control and CD8+ T cell-depleted mice", "result": "> 50", "unit": "%"}, {"measurement": "reduced tumor growth", "setting": "[1]; oral L-fuc", "result": "~50", "unit": "%"}, {"measurement": "immunostimulatory capacity of treated dendritic cells (DCs)", "setting": "[2]", "result": "enhanced immunostimulatory capacity"}]}]}
